# Patent publication US20260272871A1, “USE OF RETINOIC ACID RECEPTOR ACTIVATOR AND COMPOSITION THEREOF IN REGENERATION AND REPAIR OF MAMMALS” (INSTITUTE OF ZOOLOGY, CHINESE ACADEMY OF SCIENCES, priority 2022, published 2026)
# Entries after “also recorded” stand apart in the source; their conditions may differ.
# Tests used:
# [1] = system: 2 mm diameter mouse ear hole; experiment: 2 mm ear hole trauma mouse model (ear hole closure); type: in vivo, C57BL/6 mice; conditions: for healing of 2 mm ear holes by inhibitors of ferroptosis and autophagy: 10-20 mg/kg, measured 21 days after damage, vs DMSO and CHX, FIG. 3; for ear hole regeneration (healing) on interfering with potential RA targets: 10 or 20 mg/kg per reagent, 21 days after the trauma, FIG. 5B
# [2] = system: 4 mm diameter mouse ear hole; set-up: species or system mice; conditions: in vivo
# [3] = system: scalded skin of mice; experiment: Scald scar formation in mice; type: in vivo; conditions: after 40 days of administration, after hair shaving, vs Vehicle; FIG. 7
# Method: Experimental method: 7-week-old mice were used and (1) mice were anesthetized by intraperitoneal injection of 0.5% pentobarbital sodium (100 μl/10 g b.w.); (2) the back was shaved, and the skin was disinfected with 75% alcohol. (3) the mice were scalded with boiling water for 10-15 seconds. The scald area was a circle with a diameter of 1.5 cm. […] (5) wound repair status was detected.
compound,measurement,setting,value
O=C1OC(COc2ccccc2[N+](=O)[O-])CC1Cc1ccccc1 (stereo not shown) [3BDO],healing of 2 mm ear holes by inhibitors of ferroptosis and autophagy,[1],Neither inhibitors of ferroptosis nor autophagy could promote the healing of the ear hole like CHX
O=S(=O)(NCCN1CCNCC1)c1ccc(NC2CCCCC2)c(NCc2ccccc2)c1 [UAMC-3203],healing of 2 mm ear holes by inhibitors of ferroptosis and autophagy,[1],Neither inhibitors of ferroptosis nor autophagy could promote the healing of the ear hole like CHX
CCC(CC)C(c1ccc(Nc2nc3ccccc3s2)cc1)n1cncn1 (stereo not shown) [Talarozole],ear hole regeneration (healing) on interfering with potential RA targets,[1],could also promote ear hole regeneration
"C[C@@H]1C[C@@H]([C@H](O)CC2CC(=O)NC(=O)C2)C(=O)[C@@H](C)C1 [CHX, 4-((R)-2-((1S,3S,5S)-3,5-dimethyl-2-oxocyclohexyl)-2-hydroxyethyl)piperidine-2,6-dione]",closure of 4 mm diameter ear holes,[2],"promoted the shrinkage of ear hole wounds, but could not completely close them; also recorded: complete closure of the ear holes could be achieved"
same,wound area of the 4 mm mouse ear hole,[2],significantly reduced
same,HE staining of auricle tissue 180 days after ear hole closure,"[1]; mouse, in vivo","regeneration of tissues and tissue derivatives such as hair follicles, glands, cartilage, muscles and blood vessels"
same,HE staining of mouse auricle tissue,"[1]; mouse, in vivo",the trauma had completely healed
same,"HE staining of mouse auricle tissue, 15th day","[1]; mouse, in vivo",healed the tissue after damage and formed granulation tissue
same,KI67 immunohistochemical staining of mouse auricle tissue,"[1]; mouse, in vivo",expressed a large amount of KI67
same,concentration (dose) above which the ear hole wound was completely closed,"[1]; mouse, in vivo",greater than 8 mg/kg
same,dose dependence of promotion of 2 mm ear hole healing,"[1]; mouse, in vivo",dose-dependent
same,effect of different administration manners on ear hole healing,"[1]; mouse, in vivo",different manners of administration had the effect of promoting regeneration
same,healing condition of 2 mm ear hole (photograph),"[1]; mouse, in vivo",had completely closed
same,healing of the 2 mm ear hole,"[1]; mouse, in vivo",could significantly promote the healing of the ear hole; also recorded: the healing effect of CHX was better
same,closure of 2 mm diameter ear holes at different concentrations of CHX,"[1]; mouse, in vivo, ip",promoted the closure
"CC1=C(/C=C/C(C)=C/C=C/C(C)=C/C(=O)O)C(C)(C)CCC1 [RA, all-trans retinoic acid]",closure of the ear hole with RA alone,"[1]; RA 5 mg/kg, 20 mg/kg vs DMSO, 21 days after ear hole damage, FIG. 5A",promote the closure of the ear hole in a dose-dependent manner
same,scar area after scald,[3],significantly reduce the scar area
Cc1ccc(C2=CCC(C)(C)c3ccc(C#Cc4ccc(C(=O)O)cc4)cc32)cc1 [AGN193109],effect of RAR inhibitor on CHX-induced ear hole healing,"[1]; CHX 20 mg/kg + AGN 0.75 mg/kg i.p., 21 days after damage, FIG. 4",completely inhibit the healing of the ear holes induced by CHX
same,effect of RAR inhibitor on the coordinated effect of CHX+RA,"[1]; CHX 20 mg/kg + RA 5 mg/kg + AGN 0.75 mg/kg i.p., 21 days after damage, FIG. 4",could still be inhibited
CC1=C(/C=C/C(C)=C/C=C/C(C)=C/CO)C(C)(C)CCC1 [vitamin A],ear hole regeneration (healing) on interfering with potential RA targets,[1],could also promote ear hole regeneration
Cc1cc(Nc2cc(Cl)nc(Oc3ccc([N+](=O)[O-])cc3)n2)n[nH]1 [Autophinib],healing of 2 mm ear holes by inhibitors of ferroptosis and autophagy,[1],Neither inhibitors of ferroptosis nor autophagy could promote the healing of the ear hole like CHX
"COc1ccc(C[C@H]2NC[C@H](O)[C@H]2OC(C)=O)cc1 [Ani, Anisomycin]",healing of the 2 mm ear hole,"[1]; mouse, in vivo",could significantly promote the healing of the ear hole
